Measurements as given in US12583869B2, “Salt form and crystal form of A2A receptor antagonist and preparation method therefor” (CSTONE PHARMACEUTICAL (SUZHOU) CO., LTD., priority 2019, dated 2026).
Like-named read-outs stand apart in the source and are kept apart here.

Key:
[1] = Stability experiments of crystal forms (60°C/75% RH, HPLC related substances); format: physicochemical; conditions: for Stability under high temperature and high humidity conditions (in words): 60°C/75% humidity, 1 week
Method: A certain amount (approximately 10 mg) of two parts of the crystal form A of the compound of formula (I), the crystal form B of the compound of formula (II) and the crystal form C of the compound of formula (III) were weighed in parallel, and added to a 40 mL of sample bottle, which were placed in a constant temperature and humidity box at 60° C./75% humidity for 1 week. Another sample (about 10 mg) of the crystal form A of the compound of formula (I), the crystal form B of the compound of formula (II) and the crystal form C of the compound of formula (III) were placed in a refrigerator at −20° C. as control samples. At the time point of investigation, the corresponding test sample was taken out of the stability box, the aluminum foil paper was removed from the sample bottle of 60° C./75% RH, and the sample bottle was covered with a bottle cap. The 0-day samples were taken out of the refrigerator and analyzed after the samples were restored to room temperature.

[2] = Pharmacokinetic experiment in mice, single intravenous and oral administration; format: in vivo; conditions: female, mouse, plasma; Balb/c mice, oral vs intravenous; read-out: Bioavailability F
Method: Experimental materials: Balb/c mice (female, 15-30 g, 7-9 weeks old, Shanghai Lingchang) were used.
Experimental method: The rodent pharmacokinetic characteristics of the compound after intravenous injection and oral administration were tested by a standard protocol. In the experiment, the candidate compound was formulated into a clear solution and given to mice by a single intravenous injection and a single oral administration. The solvent for intravenous injection (IV) was a mixed solvent of 5% DMSO/5% polyethylene glycol hydroxystearate/90% water, and the solvent for oral (PO) was a mixed solvents of 1% tween80, 9% PEG400, 90% H2O (pH=3). Whole blood samples within 48 hours were collected, centrifuged at 3000 g for 15 minutes at 4 degrees, separated the supernatant to obtain a plasma sample. Then 20 times the volume of acetonitrile solution containing internal standard was added to precipitate the protein, the mixture was centrifuged to take the supernatant, equal volume of water was added and centrifuge to take the supernatant again for injection. The blood drug concentration was quantitatively analyzed by LC-MS/MS analysis method, and the pharmacokinetic parameters were calculated, such as peak concentration, peak time, clearance rate, half-life, area under the drug-time curve, bioavailability, etc.

[3] = In vivo PK experiment, plasma and tumor tissue on day 20 of the efficacy experiment; parameters: species or system BALB/c mice; conditions: BALB/c, mouse, oral; for concentration at 1 h / concentration at 4 h: tumor, read-out: Tumor drug concentration
Method: Blood was collected and tissues were collected from each group of the experiment at different time points (0 h, 0.25 h, 0.5 h, 1 h, 2 h, 4 h, 8 h and 24 h) on day 20 of the administration of experimental embodiment 3. The pharmacokinetic parameters of each experimental group were shown in Table 12, and the biological ratios of the tumor tissue drug concentration and the corresponding blood sampling point tumor tissue drug concentration and plasma drug concentration of each experimental group were shown in Table 13.

[4] = tested on: mouse colon cancer CT26 cells; assay: In vivo drug efficacy experiment, subcutaneous CT26 allograft tumor; parameters: species or system BALB/c mice; conditions: CS1003 1 mg/kg intraperitoneal, day 20
Method: Experimental materials: BALB/c mice (female); mouse colon cancer CT26 cells (cell bank of the Type Culture Collection Committee of the Chinese Academy of Sciences), were cultured in a monolayer in vitro, and the culture condition was RPMI-1640 medium containing 10% fetal bovine serum, and cultured in 5% CO2 incubator at 37° C. Trypsin-EDTA was used for conventional digestion and passage. When the cells were in the exponential growth phase and the saturation was 80%-90%, the cells were collected and counted.
Compound preparation: The compound of formula (II-1) was weighed and added to a solvent (10% PEG400+90% (10% Cremophor aqueous solution)) to prepare samples of 2.5 mg/mL, 5 mg/mL, and 10 mg/mL, respectively. […]
Experimental operation: The cells in Dulbecco's phosphate buffer were resuspended at a density of 3×10^6 cells/mL. […] During the entire experiment, the animals were weighed and monitored daily. […] The tumor diameter was measured with vernier calipers twice a week. […]
The anti-tumor efficacy of the compound was evaluated by GI (%) or relative tumor proliferation rate T/C (%). […]
The statistical analysis was based on the relative tumor volume and tumor weight at the end of the experiment using SPSS software. The comparison between the two groups was analyzed by t-test, and the comparison between three or more groups was analyzed by one-way ANOVA. […]

Molecule	Impurity at relative retention time 0.36 ([1]; 0 day (control sample, -20°C))	Impurity at relative retention time 0.45 ([1]; 0 day (control sample, -20°C))	Impurity at relative retention time 0.49 ([1]; 0 day (control sample, -20°C))	Impurity at relative retention time 0.67 ([1]; 0 day (control sample, -20°C))	Impurity at relative retention time 0.70 ([1]; 0 day (control sample, -20°C))	Impurity at relative retention time 1.18 ([1]; 0 day (control sample, -20°C))	Total impurities % ([1]; 0 day (control sample, -20°C)) [%]	Impurity at relative retention time 0.36 ([1]; 60 C./75% RH, one week)	Impurity at relative retention time 0.45 ([1]; 60 C./75% RH, one week)	Impurity at relative retention time 0.49 ([1]; 60 C./75% RH, one week)	Impurity at relative retention time 0.67 ([1]; 60 C./75% RH, one week)	Impurity at relative retention time 0.70 ([1]; 60 C./75% RH, one week)	Impurity at relative retention time 1.18 ([1]; 60 C./75% RH, one week)	Total impurities % ([1]; 60 C./75% RH, one week) [%]	Stability under high temperature and high humidity conditions (in words) [1]	other results
Nc1nc(-c2ccc(F)cc2)c(-c2ccc3ncnn3c2)c2nccnc12.O=C(O)/C=C\C(=O)O	0.06	0.09	0.09	0.05	0.11	0.29	0.69	0.05	0.09	0.09	0.05	0.12	0.29	0.69	good stability	–
Nc1nc(-c2ccc(F)cc2)c(-c2ccc3ncnn3c2)c2nccnc12 [Compound of formula (II-1)]	–	–	–	–	–	–	–	–	–	–	–	–	–	–	–	bioavailability [2]: 30.4%; concentration at 1 h ([3]; 25 mpk, Group 4, 25 mpk + CS1003, time point 1 h): 3.48 µM; concentration at 4 h ([3]; 25 mpk, Group 4, 25 mpk + CS1003, time point 4 h): 925 nM; concentration at 1 h ([3]; 50 mpk, Group 5, 50 mpk once a day + CS1003, time point 1 h): 9.96 µM; concentration at 4 h ([3]; 50 mpk, Group 5, 50 mpk once a day + CS1003, time point 4 h): 1660 nM; concentration at 4 h ([3]; 50 mpk, Group 8, 50 mpk twice a day + CS1003, time point 4 h): 3020 nM; concentration at 1 h ([3]; 100 mpk, Group 6, 100 mpk + CS1003, time point 1 h): 18.7 µM; concentration at 4 h ([3]; 100 mpk, Group 6, 100 mpk + CS1003, time point 4 h): 3030 nM; Kp at 1 h ([3]; tumor/plasma, Group 4, 25 mpk + CS1003, time point 1 h, read-out: T/P Ratio (compound exposure in tumor tissue and plasma)): 0.7
Nc1nc(-c2ccc(F)cc2)c(-c2ccc3ncnn3c2)c2nccnc12 [Crystal form B of the compound of formula (II)]	0.09	0.10	0.09	0.05	0.15	0.40	0.87	0.09	0.10	0.09	0.05	0.15	0.40	0.87	good stability	–
Nc1nc(-c2ccc(F)cc2)c(-c2ccc3ncnn3c2)c2nccnc12 [Crystal form C of the compound of formula (III)]	0.05	0.09	0.08	0.04	0.09	0.50	0.96	0.05	0.09	0.08	0.04	0.09	0.52	1.16	good stability	–
CS1003: full-length, fully humanized immunoglobulin G4 (IgG4) monoclonal antibody against PD-1 (antibody, chains of the INN, looked up, V domains shown) VH: QVQLVQSGAEVKKPGSSVKVSCKASGFTFTTYYISWVRQAPGQGLEYLGYINMGSGGTNYNEKFKGRVTITADKSTSTAYMELSSLRSEDTAVYYCAIIGYFDYWGQGTMVTVSS VL: DVVMTQSPLSLPVTLGQPASISCRSSQSLLDSDGGTYLYWFQQRPGQSPRRLIYLVSTLGSGVPDRFSGSGSGTDFTLKISRVEAEDVGVYYCMQLTHWPYTFGQGTKLEIK	–	–	–	–	–	–	–	–	–	–	–	–	–	–	–	Tumor volume [4]: 487.34±109.07 mm^3; Tumor inhibition rate GI ([4]; no significant difference with solvent control): 42.47%
